The results in this text go back to ChEMBL document CHEMBL4613208, “Isatin derivatives and their anti-bacterial activities” (Eur J Med Chem, 2019).

Data set [1] has as its system Pseudomonas aeruginosa. The data set is described as follows: Antibacterial activity against Pseudomonas aeruginosa assessed as zone of inhibition at 20 mg/ml. The settings on record: read-out: IZ. The format is functional.
The subject of data set [2] is Escherichia coli. Briefly: Antibacterial activity against Escherichia coli assessed as zone of inhibition at 20 mg/ml. It is filed as functional. The settings on record: read-out: IZ.
In data set [3] the test system is Bacillus subtilis. Briefly: Antibacterial activity against Bacillus subtilis assessed as zone of inhibition at 20 mg/ml. It is filed as functional. The settings on record: read-out: IZ.
The subject of data set [4] is Staphylococcus aureus. The data set is described as follows: Antibacterial activity against Staphylococcus aureus assessed as zone of inhibition at 20 mg/ml. It is filed as functional. The settings on record: read-out: IZ.
In data set [5] the test system is Escherichia coli. The data set is described as follows: Antibacterial activity against Escherichia coli ATCC 25922 after 24 hrs by agar well diffusion technique. The format is functional. The note with it: ATCC 25922, 24 h. Background: In agar diffusion tests the substance spreads into inoculated agar from a disc or well.
Data set [6] relates to Staphylococcus aureus. The data set is described as follows: Antibacterial activity against Staphylococcus aureus ATCC 25923 after 24 hrs by agar well diffusion technique. The format is functional. The settings on record: ATCC 25923, 24 h.
A further data set deals with Bacillus cereus. The data set is described as follows: Antibacterial activity against Bacillus cereus after 24 hrs by agar well diffusion technique. The format is functional.
Another data set relates to Shigella dysenteriae. The data set is described as follows: Antibacterial activity against Shigella dysenteriae after 24 hrs by agar well diffusion technique. The format is functional.
The test system of a further data set is Shigella flexneri. The data set is described as follows: Antibacterial activity against Shigella flexneri. The format is functional.
For data set [7], the system named is Staphylococcus epidermidis. Briefly: Antibacterial activity against Staphylococcus epidermidis. The format is functional.
The next data set relates to Salmonella typhi. Briefly: Antibacterial activity against Salmonella typhi. It is filed as functional, Salmonella enterica subsp. enterica serovar Typhi. The note with it: Salmonella enterica.
The subject of data set [8] is Escherichia coli. Briefly: Antibacterial activity against Escherichia coli. It is filed as functional, organism-based.
In a further data set the test system is Vibrio cholerae. The data set is described as follows: Antibacterial activity against Vibrio cholerae. The format is functional.
For data set [9], the system named is Staphylococcus aureus. Briefly: Antibacterial activity against Staphylococcus aureus. The format is functional, organism-based.
In the next data set the test system is Klebsiella pneumoniae. The data set is described as follows: Antibacterial activity against Klebsiella pneumoniae. It is filed as functional.
For the next data set, the system named is Citrobacter freundii. The data set is described as follows: Antibacterial activity against Citrobacter freundii. It is filed as functional.
Data set [10] deals with Pseudomonas aeruginosa. Briefly: Antibacterial activity against Pseudomonas aeruginosa. It is filed as functional, organism-based.
Another data set has as its system Streptococcus pyogenes. The data set is described as follows: Antibacterial activity against Streptococcus pyogenes. The format is functional.
In a further data set the test system is Proteus vulgaris. The data set is described as follows: Antibacterial activity against Proteus vulgaris. The format is functional.
In data set [11] the test system is Bacillus subtilis. The data set is described as follows: Antibacterial activity against Bacillus subtilis. It is filed as functional.
For data set [12], the system named is Escherichia coli. The data set is described as follows: Antibacterial activity against Escherichia coli NCTC 10418. The format is functional.
Data set [13] deals with Escherichia coli. The data set is described as follows: Potency index, ratio of ED50 for norfloxacin to ED50 for test compound for in vivo antibacterial activity against Escherichia coli infected in po dosed mouse. The format is functional.
Data set [14] deals with Escherichia coli. The data set is described as follows: In vivo antibacterial activity against Escherichia coli infected in po dosed mouse. The format is functional.
The nature of data set [15]: Toxicity in po dosed mouse. The format is organism-based. The note with it: in vivo.

Converted amounts (≈) assume the structure as drawn.

In the case of `CCOC(=O)c1c(NC(C)(C)C)oc(N(C(=O)CN2C(=O)/C(=C3/C(=O)N(CO)c4ccccc43)SC2=S)C(C)(C)C)c1C(=O)OCC`, the zone of inhibition at 20000 µg/mL in the data set with Pseudomonas aeruginosa [1], in the data set on Escherichia coli [2], with Bacillus subtilis [3] and in the data set with Staphylococcus aureus [4] was 15.6 to 26 mm each time.
As to `CCOC(=O)CN1C(=O)/C(=C2\SC(=S)N(CC(=O)N(c3oc(NC(C)(C)C)c(C(=O)OC)c3C(=O)OC)C(C)(C)C)C2=O)c2cc(Cl)ccc21`, the zone of inhibition at 20000 µg/mL with Pseudomonas aeruginosa [1], in the data set on Escherichia coli [2], with Bacillus subtilis [3] and in the data set on Staphylococcus aureus [4] was 15.6 to 26 mm in each case.
Regarding `Cc1cc(NS(=O)(=O)c2ccc(N)cc2)no1` [SULFAMETHOXAZOLE], the MIC with Escherichia coli [5], against Staphylococcus aureus [6], against Bacillus cereus and against Shigella dysenteriae was 2.5 µg/mL (≈ 9.87 µM) in each case.
Turning to `Cc1ccc2c(c1)C(=O)C(=O)N2CN1CCN(c2cc3c(cc2F)c(=O)c(C(=O)O)cn3C2CC2)CC1`, the MIC (in the data set with Shigella flexneri; in data set [7]; against Salmonella typhi; in the data set with Escherichia coli [8]; in the data set with Vibrio cholerae; in the data set on Staphylococcus aureus [9]) was 0.1 to 0.5 µg/mL (≈ 0.198 to 0.991 µM) each time. Moreover, the MIC in the data set with Klebsiella pneumoniae, in the data set with Citrobacter freundii and with Pseudomonas aeruginosa [10] was 0.1 to 0.5 µg/mL (≈ 0.198 to 0.991 µM) each time.
With `COc1cc(/C=N/N2C(N)=NNC23C(=O)Nc2ccc(C)cc23)ccc1O` (configuration not stated), the MIC against Escherichia coli [5], with Staphylococcus aureus [6], in the data set with Bacillus cereus and against Shigella dysenteriae was 1 to 15 µg/mL (≈ 2.73 to 40.9 µM) in each case.
Take `CC1(C)S[C@@H]2[C@H](NC(=O)[C@H](N)c3ccccc3)C(=O)N2[C@H]1C(=O)O` [AMPICILLIN]: the MIC against Shigella flexneri, against Streptococcus pyogenes, in the data set on Proteus vulgaris, against Staphylococcus aureus [9], against Klebsiella pneumoniae and against Bacillus subtilis [11] was 0.007 to 1.95 µg/mL (≈ 0.02 to 5.58 µM) throughout.
Consider `CC(C)(C)Nc1oc(N(C(=O)CN2C(=O)C(=O)c3ccccc32)C(C)(C)C)c(C(=O)OC(C)(C)C)c1C(=O)OC(C)(C)C`, for which the zone of inhibition at 20000 µg/mL in the data set with Pseudomonas aeruginosa [1], with Escherichia coli [2], in the data set with Bacillus subtilis [3] and in the data set with Staphylococcus aureus [4] was 15.6 to 26 mm in each case.
For `CCOC(=O)CN1C(=O)/C(=C2\SC(=S)N(CC(=O)N(c3oc(NC(C)(C)C)c(C(=O)OCC)c3C(=O)OCC)C(C)(C)C)C2=O)c2ccccc21`, the zone of inhibition at 20000 µg/mL in the data set on Pseudomonas aeruginosa [1], in the data set with Escherichia coli [2], in the data set with Bacillus subtilis [3] and with Staphylococcus aureus [4] was 15.6 to 26 mm each time.
`CCn1cc(C(=O)O)c(=O)c2cc(F)c(N3CCN(CN4C(=O)/C(=N\c5ccc(S(=O)(=O)Nc6ncnc(OC)c6OC)cc5)c5ccccc54)CC3)cc21`: in the data set on Escherichia coli [12], the MIC is < 1 µg/mL. For the same molecule, the “Ratio ED50” value in the data set on Escherichia coli [13] is >3.7. In the data set on Escherichia coli [14], the ED50 was 1.25 mg/kg. Further, in [15], the LD50 was > 4000 mg/kg.
With `COC(=O)c1c(NC(C)(C)C)oc(N(C(=O)CN2C(=O)/C(=C3/C(=O)N(CC(=O)N(c4oc(NC(C)(C)C)c(C(=O)OC(C)(C)C)c4C(=O)OC(C)(C)C)C(C)(C)C)c4ccccc43)SC2=S)C(C)(C)C)c1C(=O)OC`, the zone of inhibition at 20000 µg/mL in the data set on Pseudomonas aeruginosa [1], with Escherichia coli [2], with Bacillus subtilis [3] and in the data set on Staphylococcus aureus [4] was 15.6 to 26 mm in each case.
For the molecule `[N-]=[N+]=Nc1ccc(C2=NN(C(=O)CN3C(=O)C(=O)c4ccccc43)C(c3ccc(F)cc3)C2)cc1` (configuration not stated), the MIC with Escherichia coli [8], against Staphylococcus aureus [9], in the data set with Pseudomonas aeruginosa [10] and against Bacillus subtilis [11] was 6.25 to 50 µg/mL (≈ 13.3 to 107 µM) each time.
As for `Cc1cc(NS(=O)(=O)c2ccc(/N=C3\C(=O)N(CO)c4ccccc43)cc2)no1`, the MIC in the data set on Escherichia coli [5], with Staphylococcus aureus [6], with Bacillus cereus and against Shigella dysenteriae was 1 to 15 µg/mL (≈ 2.42 to 36.4 µM) in each case.
`CCn1cc(C(=O)O)c(=O)c2cc(F)c(N3CCN(CN4C(=O)/C(=N\c5ncc(Cc6cc(OC)c(OC)c(OC)c6)c(N)n5)c5cc(Br)ccc54)CC3)cc21`: in the data set with Escherichia coli [12], the MIC is < 1 µg/mL. Moreover, the “Ratio ED50” value in the data set on Escherichia coli [13] is given as >3.7.

As a reminder, the MIC is the least concentration at which growth counts as inhibited. A lower MIC goes with greater potency. Usually ED50 stands for the dose at which the effect has come halfway, by size or by number of responders. Read a high ED50 as weaker potency. As a reminder, the LD50 is the dose at which mortality reaches 50%.
